# Like-named read-outs stand apart in the source and are kept apart here.
# How the values were obtained:
# [1] = Solubility in water and aqueous acid media; format: physicochemical; details: thermodynamic from solid
# Experimental: A weighed sample is treated with aliquots of the test solvent at room temperature or elevated temperature. Complete dissolution of the test material is determined by visual inspection. Solubility is estimated based on the total solvent used to provide complete dissolution. The actual solubility may be greater than the value calculated because of the use of solvent aliquots that were too large or due to a slow rate of dissolution. […] If complete dissolution is achieved as a result of only one aliquot addition, the solubility is expressed as “greater than”. Solubility of a salt may be expressed as the mass of salt dissolved per unit volume of solution, (denoted as, for example, “mg/mL”), or as the free base equivalent (denoted as, for example, “mgA/mL”).
# (§1) Solubility and Dissolution Rate Data.
# [2] = Solubility in simulated biological media; format: physicochemical; details: thermodynamic from solid, mean ± SD, n = 2
# Description: as §1
# (§2) Solubility and Dissolution Rate Data. […]
# [3] = Equilibrium solubility at 25° C.; format: physicochemical; details: thermodynamic from solid
# Description: as §2
# [4] = HPLC area %, listed as Amorphous Mono-HCl Salt of Compound A1
# Experimental: (§3) Stress Experiments. Solids are stressed under different temperature or relative humidity (RH) environments for a measured time period. Specific RH values are achieved by placing the sample inside sealed chambers containing saturated salt solutions, as known in the art. The salt solutions are selected and prepared following an ASTM standard procedure. Samples are analyzed by XRPD immediately after removal from the stress environment.
# Analyses are carried out on an Agilent® model 1100 high performance liquid chromatograph using gradient elution on a reversed phase column utilizing ultraviolet (UV) detection. Approximately 25 mg of the sample is weighed accurately and dissolved in methanol/water/trifluoroacetic acid (35:65:0.05) to a volume of 50 mL. The sample solution is analysed using the conditions specified below:
# The content of the drug and related substances are quantified by area (%).
# Chemical Stability. The chemical stability of Form I of the mono-HCl salt of Compound A1 was assessed by stressing the material at various temperature/relative humidity/light conditions, then analyzing by HPLC.
# Chemical Stability Data. The chemical stability of a sample of Form I of the sesquifumarate salt of Compound A1 was assessed by stressing the material at various temperature/relative humidity/light conditions, then analyzing by HPLC.
# [5] = for Water content: 3 days, KF
# Experimental: as §3
# Modulated differential scanning calorimetry data are obtained on a TA Instruments differential scanning calorimeter 2920 equipped with a refrigerated cooling system (RCS). The sample is placed into an aluminum DSC pan, and the weight is accurately recorded. The pan is covered with a lid with is either crimped or uncrimped. MDSC data are obtained using a modulation amplitude of +/−0.8° C. and a 60 second period with an underlying heating rate of about 2° C./min. The temperature and the heat capacity are calibrated using indium metal and sapphire as the calibration standards, respectively. The reported glass transition temperature is obtained from the inflection of the step change in the reversible heat flow versus temperature curve.
# Physical Stability. Physical stability measurements were performed on the amorphous form of the mono-HCl salt of Compound A1. The amorphous HCl salt prepared by spray drying was set down under two conditions (40° C./75% RH and 25° C./60% RH) for physical stability studies.
# To investigate the impact of water on the amorphous mono-HCl salt, the material was stored at various RH conditions controlled by saturated salt solutions. Each material was checked by PLM (morphology), KF (water content), and mDSC (Tg value) after 3 days.
# [6] = Dissociation constant (pKa); format: physicochemical; details: piperazine nitrogen of free base
# [7] = Partition coefficient LogD; format: physicochemical; details: pH 7.4; free base
# rat = assay: Punished responding procedure (modified Geller-Seifter conflict test); details: for Rate of Responding: Punished responding / Rate of Responding: Unpunished responding: 60 minute pretreatment
# Description: Method. In the conflict test, hungry animals were trained to lever-press for food delivery in a standard operant chamber under 2 conditions. In the first condition, referred to as the unsuppressed component, food was delivered on average after 17 lever-presses were made (also called a VR17 schedule of reinforcement). In the second condition, referred to as the suppressed component and signaled by flashing lights inside the operant chamber, food was also delivered following an average of 17 lever-presses, but electric shock was additionally delivered to the floor of the cage under a separate VR17 schedule. Daily sessions consisted of 5 alternating presentations of each component type: suppressed (3 minutes in duration) and unsuppressed (2 minutes in duration). The number of lever presses emitted in the suppressed component was obviously low relative to the unsuppressed component.
# Drug Administration and Preparation. […] Monday and Wednesday were washout/baseline days.
# Apparatus. Standard 2-lever operant chambers were used (Med Associates). The chambers were fitted with 2 retractable response levers and a stimulus lamp over each of the 2 levers. A pellet dispenser delivered 45 mg food pellets, (Bio Serv) to a cup located inside of the chamber below and between the 2 response levers. A lamp at the top and back of the chamber served as houselights. The grid floors of the operant chambers were interfaced to shock generators and scramblers (Med Associates). All events in the chambers were controlled and monitored by a microprocessor.
# Procedures. There were 2 components in the procedure: 1) an unsuppressed responding component (unpunished) with 2 minutes in duration; and 2) a suppressed responding component (punished) with 3 minutes in duration.
# In the unpunished component, the houselights and both stimulus lamps over the response levers were turned on, the lever on the left-hand side of the chamber extended, and a food pellet was delivered following an average of 17 responses on the lever in the chamber (range 3 to 40 responses)—a variable-ratio 17 schedule (VR17).
# In the punished component (which followed the unpunished component), the right-hand lever was extended into the chamber; the stimulus lamps and houselights were turned on and off at 1 second intervals, in succession, which served as a cue for this component; and food was available under a VR17 schedule, but was accompanied by an electrical current (0.5 second duration) that was delivered to the grid floor of the chamber under an independent VR17 schedule. The level of the current was adjusted for each individual subject until responding was reduced in the punished component to a level that was about 5% to 10% that of the unpunished component, and ranged from 0.2 mA to 0.75 mA. Unpunished and punished components were separated by 10 second time-out periods in which both response levers were retracted and all stimulus lamps turned off. 2 minute unpunished and 3 minute punished components alternated until 5 of each were completed. Daily sessions always began with the unpunished responding component. […] Several doses were tested on a given test day in different subjects. Each dose, then, was tested in different sub-set of rats.
# Data Analysis. The dependent variables recorded were the rate of responding in unpunished and punished components (total responses/total time under the component) and the number of shocks delivered.
# [8] = 0.1M phosphate buffer, pH 7.5, aqueous buffer, initial pH 7.5
# [9] = FeSSIF (fed-state simulated intestinal fluid), pH 5.03, fessif, initial pH 5.03
# [10] = SGF (simulated gastric fluid), pH 1.3, simulated gastric fluid, initial pH 1.3
# [11] = simulated gastric fluid (SGF), pH 1.3, simulated gastric fluid, SGF (simulated gastric fluid), initial pH 1.3
smiles,measurement,setting,value
"CCN(CC)C(=O)c1ccc([C@H](c2cccc(N)c2)N2CCN(Cc3ccc(F)cc3)CC2)cc1 [4-{(R)-(3-aminophenyl)[4-(4-fluorobenzyl)piperazin-1-yl]methyl}-N,N-diethylbenzamide]",solubility,"[1]; 0.1M phosphate acid, pH 3.3, aqueous buffer, 0.1M phosphate acid, pH=3.3, read-out: solubility in 0.1M phosphate acid",> 40 mg/mL
same,solubility,"[1]; 0.1M phosphate acid, pH 3.5, aqueous buffer, 0.1M phosphate acid, pH=3.5, read-out: solubility in 0.1M phosphate acid",12 mg/mL
same,solubility,"[1]; 0.1 M phosphoric acid, pH 3.3, aqueous buffer, ambient temperature, pH of about 3.3 (0.1 M phosphoric acid), read-out: solubility in water (0.1 M phosphoric acid)",> 40 mg/mL
same,solubility,"[1]; 0.1 M phosphoric acid, pH 3.5, aqueous buffer, ambient temperature, pH of about 3.5 (0.1 M phosphoric acid), read-out: solubility in water (0.1 M phosphoric acid)",~12 mg/mL
same,solubility,"[1]; 0.1N HCl, pH 2, simulated gastric fluid, 0.1N HCl, pH about 2, read-out: solubility in 0.1N HCl",24.9 mg/mL
same,solubility,"[1]; water, pH 3.8, water, ambient temperature, water with a pH of about 3.8, read-out: solubility in water",~24 mg/mL
same,solubility,"[1]; water, pH 3.8, water, water, pH=3.8, read-out: solubility in water",24 mg/mL
same,solubility,"[1]; water, pH 4.2, water, ambient temperature, water with a pH of about 4.2, read-out: solubility in water",> 41 mg/mL
same,solubility,"[1]; water, pH 4.2, water, water, pH=4.2, read-out: solubility in water",> 41 mg/mL
same,solubility at 3 h,[2]; [8],0.29 mg/mL
same,solubility at 24 h,[2]; [8],0.1 mg/mL
same,solubility at 3 h,[2]; [9],3.4 mg/mL
same,solubility at 24 h,[2]; [9],3.06 mg/mL
same,solubility at 3 h,[2]; [10],23 mg/mL
same,solubility at 24 h,[2]; [10],22 mg/mL
same,solubility at 3 h,[2]; [11],23.1 ± 0.12 mg/mL
same,solubility at 24 h,[2]; [11],21.9 ± 0.23 mg/mL
same,solubility thermodynamic,"[3]; 0.1 M citrate buffer, aqueous buffer, pH 4.5, Citrate 0.1M",15.6 mg/mL
same,solubility thermodynamic,"[3]; 0.1 M phosphate buffer, aqueous buffer, pH 7.8, Phosphate 0.1M",0.16 mg/mL
same,solubility thermodynamic,"[3]; aqueous buffer, 0.1N NaOH",0.092 mg/mL
same,solubility thermodynamic,"[3]; simulated gastric fluid, 0.1N HCl",21.6 mg/mL
same,solubility thermodynamic,[3]; Pure water,8.7 mg/mL
same,"% Purity after 60° C./80% RH, 2 wks","[4]; 60° C./80% RH, 2 weeks",94.4%
same,"% Purity after 60° C./80% RH, 4 wks","[4]; 60° C./80% RH, 4 weeks",94.5%
same,"% Purity after 80° C., 2 wks","[4]; 80° C., 2 weeks",98.7%
same,"% Purity after 80° C., 4 wks","[4]; 80° C., 4 weeks",98.6%
same,Purity after Photostability 3X ICH conditions,[4]; Photostability 3X ICH conditions,82.3%
same,Initial Purity,"[4]; initial, before storage",98.8%
same,physical stability,[5],physically stable
same,physical stability (appearance),[5],deliquesced and became brown in color
same,Water content,[5]; 23.1% RH (saturated KOAc),3.2%
same,Water content,[5]; 43.3% RH (saturated K2CO3),5.0%
same,Water content,[5]; 54.4% RH (saturated Mg(NO3)2),6.2%
same,Water content,[5]; 75.5% RH (saturated NaCl),8.2%
same,Water content,"[5]; 85.1% RH (saturated KCl), listed as Amorphous Mono-HCl Salt of Compound A1",9.5%
same,Water content,"[5]; 85.1% RH (saturated KCl), listed as amorphous mono-HCl salt",9.5%
same,Water content,[5]; 97.3% RH (saturated K2SO4),14.7%
same,water content (Karl-Fisher) of the resulting material,[5]; after 17 days at 25° C./60% RH (open),6.1%
same,water content of the initial material,"[5]; initial material, before storage",about 2.8%
"CCN(CC)C(=O)c1ccc([C@H](c2cccc(N)c2)N2CCN(Cc3ccc(F)cc3)CC2)cc1 [Compound A1, 4-{(R)-(3-aminophenyl)[4-(4-fluorobenzyl)piperazin-1-yl]methyl}-N,N-diethylbenzamide]",pKa,[6],7.26
same,logD,[7],2.53
same,sedative/hyperactive properties,rat; observations of test subjects in their home cage,does not possess sedative/hyperactive properties
same,efficacy in the model,"rat; rat, 0.21 μmol/kg",not effective
same,Percent of Control: Punished responding,"rat; rat, 0.21 μmol/kg by mouth",107 ± 19.3% of Control
same,Percent of Control: Unpunished responding,"rat; rat, 0.21 μmol/kg by mouth",103 ± 1.63% of Control
same,Rate of Responding: Punished responding,"rat; rat, 0.21 μmol/kg by mouth",0.11 ± 0.02
same,Rate of Responding: Unpunished responding,"rat; rat, 0.21 μmol/kg by mouth",2.06 ± 0.11
same,Percent of Control: Punished responding,"rat; rat, 0.63 μmol/kg by mouth",273 ± 39.2% of Control
same,Percent of Control: Unpunished responding,"rat; rat, 0.63 μmol/kg by mouth",92.1 ± 5.12% of Control
same,Rate of Responding: Punished responding,"rat; rat, 0.63 μmol/kg by mouth",0.24 ± 0.03
same,Rate of Responding: Unpunished responding,"rat; rat, 0.63 μmol/kg by mouth",2.02 ± 0.14
same,Percent of Control: Punished responding,"rat; rat, 2.1 μmol/kg by mouth",298 ± 132% of Control
same,Percent of Control: Unpunished responding,"rat; rat, 2.1 μmol/kg by mouth",106 ± 5.60% of Control
same,Rate of Responding: Punished responding,"rat; rat, 2.1 μmol/kg by mouth",0.18 ± 0.04
same,Rate of Responding: Unpunished responding,"rat; rat, 2.1 μmol/kg by mouth",1.95 ± 0.15
same,increase in punished responding (maximally efficacious dose),"rat; rat, 2.11 μmol/kg",about 300%
same,Percent of Control: Punished responding,"rat; rat, 6.3 μmol/kg by mouth",207 ± 67.2% of Control
same,Percent of Control: Unpunished responding,"rat; rat, 6.3 μmol/kg by mouth",106 ± 2.94% of Control
same,Rate of Responding: Punished responding,"rat; rat, 6.3 μmol/kg by mouth",0.17 ± 0.03
same,Rate of Responding: Unpunished responding,"rat; rat, 6.3 μmol/kg by mouth",1.92 ± 0.13
same,Percent of Control: Punished responding,"rat; rat, 21.1 μmol/kg by mouth",272 ± 100% of Control
same,Percent of Control: Unpunished responding,"rat; rat, 21.1 μmol/kg by mouth",95.5 ± 4.08% of Control
same,Rate of Responding: Punished responding,"rat; rat, 21.1 μmol/kg by mouth",0.20 ± 0.04
same,Rate of Responding: Unpunished responding,"rat; rat, 21.1 μmol/kg by mouth",1.69 ± 0.12
same,effect on unpunished responding,"rat; rat, at the doses tested (0.21 to 21.1 μmol/kg)",did not significantly decrease
